These results are taken from patent US5852213A, “Mercaptoketones and mercaptoalcohols and a process for their preparation” (American Cyanamid Company, priority 1997, dated 1998).

One test deals with Collangenase I. As to the kind of experiment: In vivo MMP Inhibition (enzyme in implanted dialysis tubing). Further details: species or system rat (Sprague-Dawley) or mouse (CD-1). As to the method: A 2 cm piece of dialysis tubing (molecular weight cut-off 12-14,000, 10 mm flat width) containing matrix metalloproteinase enzyme (stromelysin, collagenase or gelatinase in 0.5 mL of buffer) is implanted either ip or sc (in the back) of a rat (Sprague-Dawley, 150-200 g) or mouse (CD-1, 25-50 g) under anesthesia. Drugs are administered PO, IP, SC or IV through a canula in the jugular vein. Drugs are administered in a dose volume of 0.1 to 0.25 mL/animal. Contents of the dialysis tubing is collected and enzyme activity assayed.
Enzyme reaction rates for each dialysis tube are calculated. Tubes from at least 3 different animals are used to calculate the mean±sem. Statistical significance (p<0.05) of vehicle-treated animals versus drug-treated animals is determined by analysis of variance. (Agents and Actions 21: 331, 1987)

For test [1], the target named is T1, human recombinant fibroblast collagenase (Homo sapiens, UniProt P03956).
T1 construct: human recombinant fibroblast collagenase (truncated, mw 18,828, WAR, Radnor)
T1 sequence (P03956 100-269 limits assumed): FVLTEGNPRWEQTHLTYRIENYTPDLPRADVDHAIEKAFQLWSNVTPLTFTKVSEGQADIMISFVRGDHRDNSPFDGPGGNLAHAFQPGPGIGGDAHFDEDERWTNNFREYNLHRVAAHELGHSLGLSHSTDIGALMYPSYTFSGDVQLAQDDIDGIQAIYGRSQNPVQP
As to the kind of experiment: Collagenase Inhibition in vitro. It counts as biochemical. Particulars: read-out: Collagenase IC50 (nM) or % inhibition: % inhibition. The method, then:
Collagenase Inhibition in vitro
The assay is based on the cleavage of a peptide substrate ((Dnp-Pro-Cha-Gly-Cys(Me)-His-Ala-Lys(NMa)-NH2), Peptide International, Inc.) by collagenase releasing the fluorescent NMa group which is quantitated on the fluorometer. Dnp quenches the NMa fluorescence in the intact substrate. […] Substrate is dissolved in methanol and stored frozen in 1 mM aliquots. […] For the assay, substrate is dissolved in HCBC buffer to a final concentration of 10 μM and collagenase to a final concentration of 5 nM. Compounds are dissolved in methanol, DMSO, or HCBC. The methanol and DMSO are diluted in HCBC to <1%. Compounds are added to the 96 well plate containing enzyme and the reaction is started by the addition of substrate.
The slope of the line is calculated and represents the reaction rate.
(§1) The linearity of the reaction rate is confirmed (r^2 >0.85). The mean of the control rate is calculated and compared for statistical significance (p<0.05) with drug-treated rates using Dunnett's multiple comparison test.

Test [2] relates to human recombinant stromelysin. As to the kind of experiment: Stromelysin Inhibition in vitro. It is filed as biochemical. The method, then:
Stromelysin Inhibition in vitro.
The increase in OD405 is plotted and the slope of the line is calculated which represents the reaction rate.
as §1

The subject of another test is MMP. Particulars: EP 0322,184 A2; cited from earlier work.
In another test the test system is stromelysin. To be noted: PCT application WO 9407481; cited from earlier work.

For `CNC(=O)[C@@H](NC(=O)[C@H](CC(C)C)C[C@H](O)CS)C(C)(C)C` [Example 40, (2R,4S)-4-Hydroxy-2-isobutyl-5-mercaptopentanoic acid ((1S)-2,2-dimethyl-1-methylcarbamoylpropyl)amide], the “in vivo % Collangenase I inhibition” value with Collangenase I (50 mpk (milligrams/kilogram)) stood at 84.8%.

Take `CCCCCCC[C@H](C[C@@H](O)CS)C(=O)N[C@H](C(=O)NC)C(C)(C)C` [Example 37, (2R)-2-((2R)-2-Hydroxy-3-mercaptopropyl)nonanoic acid ((1S)-2,2-dimethyl-1-methylcarbamoylpropyl)amide]: the inhibition at 1 µM in test [1] was 72%.

In the case of `CCCCCCC[C@H](C[C@H](O)CS)C(=O)N[C@H](C(=O)NC)C(C)(C)C` [Example 38, (2R)-2-((2S)-2-Hydroxy-3-mercaptopropyl)nonanoic acid ((1S)-2,2-dimethyl-l-methylcarbamoylpropyl)amide], in test [2] (@ 0.1 μM), the “Stromelysin IC50 (nM) or % inhibition: % inhibition” value (“Stromelysin IC50 … % inhibition” for short) is on record as 96%. In the test on Collangenase I (50 mpk (milligrams/kilogram)), the “in vivo % Collangenase I inhibition” value worked out at 22.2%.

With `CNC(=O)[C@@H](NC(=O)[C@H](CC(C)C)C[C@@H](O)CS)C(C)(C)C` [Example 39, (2R,4R)-4-Hydroxy-2-isobutyl-5-mercaptopentanoic acid ((1S)-2,2-dimethyl-1-methylcarbamoylpropyl)amide], in test [2] (@ 300 nM), the “Stromelysin IC50 … % inhibition” value is reported as 6%. Also, the “in vivo % Collangenase I inhibition” value in the test on Collangenase I (50 mpk (milligrams/kilogram)) came to 20.4%.

For the compound `CCCCCCC[C@H](CC(=O)CS)C(=O)N[C@H](C(=O)NC)C(C)(C)C` [Example 43, (2R)-2-(3-Mercapto-2-oxopropyl)nonanoic acid ((1S)-2,2-dimethyl-1-methylcarbamoylpropyl)amide], the IC50 in test [2] (read-out: Stromelysin IC50 (nM) or % inhibition: IC50) stood at 28 nM. For the same compound, the “in vivo % Collangenase I inhibition” value in the test on Collangenase I (50 mpk (milligrams/kilogram)) was 0.73%.

In the case of `CNC(=O)[C@H](Cc1ccc(OC)cc1)NC(=O)[C@H](CC(C)C)C(S)CC(C)=O` (some centres unmarked) [compound where P is 2-oxopropyl], the “times more potent than the compound where P is methyl” value in the test on MMP is “approximately 20 times”.

Turning to `CNC(=O)[C@@H](NC(=O)[C@@H](CC(=O)CS)CC(C)C)C(C)(C)C` [Example 44, (2R)-2-Isobutyl-5-mercapto-4-oxopentanoic acid ((1S)-2,2-dimethyl-1-methylcarbamoylpropyl)amide], the “Stromelysin IC50 … % inhibition” value in test [2] (@ 1 μM) is 58%. Further, in the test with Collangenase I (60 mpk (milligrams/kilogram)), the “in vivo % Collangenase I inhibition” value stood at 4.8%.

On to `CC(C)C[C@H](NC(=O)[C@@H](CS)CCc1ccccc1)C(=O)Nc1ccccc1`, for which the “inhibitor of the MMP stromelysin” value with stromelysin is on record as “moderate inhibitor”.

In the case of “(2R,4R)-4-Hydroxy-2-isobutyl-5-tritylsulfanylpentanoic acid ((1S)-2,2-dimethyl-1-methylcarbamoylpropyl)amide [Example 35]”, in the test with Collangenase I (50 mpk (milligrams/kilogram)), the “in vivo % Collangenase I inhibition” value was determined as 0.44%.

Turning to `CNC(=O)[C@H](Cc1ccc(OC)cc1)NC(=O)[C@H](CC(C)C)C(C)S` (some centres unmarked) [compound where P is methyl], the “times more potent than the compound where P is hydrogen” value in the test on MMP was “approximately 20 times”.

As a reminder, the inhibition is the percentage by which the read-out fell short of the control. Usually IC50 stands for the point on the concentration scale where inhibition reaches its midpoint.
